# Reference: patent publication US20140287931A1, “METHODS AND COMPOSITIONS FOR PREDICTING RESISTANCE TO ANTICANCER TREATMENT” (Stichting het Nederlands Kanker Instituut - Antoni van …, priority 2011, published 2014)
# “Also recorded” adds a separate entry of the source. Like-named read-outs stand apart in the source and are kept apart here.
# Tests used:
# [1] = test system: MCF7 breast cancer cells; test: Colony formation assay in MCF7 cells with ARID1A knockdown; assay type: cell-based; conditions: 20 and 40 nM AZD8055, 4 weeks
# Method: (§1) (B) Validation of independent shRNAs (in pLKO vector) targeting ARID1A in T47D breast cancer cells. TIhe functional phenotypes of non-overlapping shARID1A vectors are indicated by the colony formation assay in 10 and 20 nM small molecule mTOR inhibitor AZD8055. The cells were fixed, stained and photographed after 2 weeks (untreated) or 4 weeks (inhibitor treatment). Ectopic expression of a mutant of cyclin DI (pBpDITA) served as a control in the experiment. (C) Validation of independent shRNAs (in pLKO vector) targeting ARID1A in MCF7 breast cancer cells. The functional phenotypes of non-overlapping shARIDJA vectors are indicated by the colony formation assay in 20 and 40 nM small molecule mTOR inhibitor AZD8055. The cells were fixed, stained and photographed after 2 weeks (untreated) or 4 weeks (inhibitor treatment). (D). Quantification of ARID1A mRNA levels by QRT-PCR after knockdown of ARID1A in MCF7 breast cancer cells.
# [2] = test system: PI3K pathway members (p473-AKT, p235/236-S6RP); test: Immunoblot of PI3K pathway members in BT474 cells; assay type: cell-based, human; conditions: BT474 expressing three independent shARID1A vectors versus shctrl; increasing amounts of AZD8055, three hours
# Method: BT474 cells stably expressing either shctrl, shTSC2 or three independent shARID1A vectors were exposed to increasing amounts of the mTOR inhibitor AZD8055. After three hours, cell lysates were prepared and PI3K pathway members were immunoblotted.
# [3] = test system: T47D breast cancer cells; test: Colony formation assay in T47D cells with ARID1A knockdown; assay type: cell-based; conditions: 10 and 20 nM AZD8055, 4 weeks
# Method: as §1
# [4] = test system: BT474 breast cancer cells; test: Colony formation assay in BT474 cells with ARID1A knockdown; assay type: cell-based, human; conditions: 25 nM AZD8055 or 2 ug/ml trastuzumab, 4 weeks
# From the text: The cells were fixed, stained and photographed after 2 weeks (untreated) or 4 weeks (inhibitor treatment).
# [5] = test system: human NSCLC cell lines that harbor EML4-ALK translocations; conditions: cited from earlier work
# [6] = test system: phospho-AKT; test: Western blotting of phospho-AKT in H3122 cells; assay type: cell-based, human; conditions: H3122 shSMARCE1 cells versus controls; 20 nM NVP-TAE684, 24 hours
# Method: (B) SMARCE1^KD cells have elevated phospho-AKT levels in EML4-ALK cells. H3122 cells expressing controls (pRS or shGFP) or shSMARCE1 vectors were gown in the absence or presence of 20 nM NVP-TAE684 for 24 hours and the cell lysates were harvested for western blotting analysis. (C) MED12^KD cells have elevated phospho-AKT levels in EGFR mutant cells. PC9 cells expressing controls (pRS or shGFP) or shSMARCE1 vectors were gown in the absence or presence of 25 nM Gefitinib for 8 hours and the cell lysates were harvested for western blotting analysis.
# Given that loss of MED2 or SMARCE1 causes resistance to multiple tyrosine kinase inhibitors in NSCLC cell lines, Applicants asked whether the activity of downstream components of receptor tyrosine kinase signaling is altered. AKT is a key downstream component and its phosphorylation status positively correlates with its activation that can be determined by specific antibodies against the phosphorylated form of AKT. 1-13122 cells were infected with two independent controls shRNA vectors or shRNAs targeting either MED12 or SMARCE1 and confirmed loss of MED112 or SMARCE1 protein by immunoblotting (FIGS. 15A and B). The cells were also treated of left untreated with the ALK inhibitor NVP-TAE684, to address the activation status of AKT in the presence or absence of the inhibitor. […]
# [7] = test system: H3122 cells; test: Colony formation assay in H3122 cells with or without shRNA knockdown; assay type: cell-based, human; conditions: for sensitivity to ALK inhibitors after restoration of Med12: H3122 MED12 knockdown cells (shMED12_TRC#3, #5) plus mouse Med12 cDNA; for sensitivity to ALK inhibitors after restoration of Med12 / sensitivity to ALK inhibitors after restoration of SMARCE1: 300 nM Crizotinib or 2.5 nM NVP-TAE684; for sensitivity to ALK inhibitors after restoration of SMARCE1: H3122 SMARCE1 knockdown cells plus SMARCE1-ND; for resistance to ALK inhibitors on suppression of ARID1A or SMARCE1, colony formation: H3122 expressing independent shARID1A or shSMARCE1 vectors; for resistance to ALK inhibitors on suppression of ARID1A or SMARCE1, colony formation / resistance to ALK inhibitors on suppression of MED12, colony formation / resistance to ALK inhibitors, colony formation: 300 nM Crizotinib or 2.5 nM NVP-TAE684, 4 weeks; for resistance to ALK inhibitors on suppression of MED12, colony formation: H3122 expressing independent shMED12 vectors (pRS #3; pLKO TRC#2, #3, #5); for resistance to ALK inhibitors, colony formation: H3122 expressing library shMED12#1, shMED12#2, shARID1A or shSMARCE1
# [8] = test system: HCC 1954 breast cancer cells; test: shRNA bar code screen in HCC 1954 breast cancer cells; assay type: cell-based
# [9] = test system: SKBR3 breast cancer cells; test: shRNA bar code screen in SKBR3 breast cancer cells; assay type: cell-based
# [10] = test system: H1993 (MET-amplified) cells; conditions: 200 nM Crizotinib; for sensitivity to MET inhibitor after restoration of SMARCE1: H1993 SMARCE1-knockdown cells plus SMARCE1-ND; for resistance to MET inhibitor on suppression of ARID1A: H1993 expressing shARID1A #1 and #2, 4 weeks
# [11] = test system: EBC-1 (MET-amplified) cells; conditions: 200 nM Crizotinib; for sensitivity to MET inhibitor after restoration of SMARCE1: EBC-1 SMARCE1-knockdown cells plus SMARCE1-ND
# Method: (§2) Single cell suspensions of the lung cancer cell lines were seeded into 6-well plates (2×10^4 cells/well) and cultured both in the absence and presence of the ALK inhibitors. At the endpoints of colony formation assays, cells were fixed with formaldehyde, stained with crystal violet (0,1% w/v) and photographed. All relevant assays were performed independently at least three times. All knockdown and overexpression experiments were done by retroviral or lentiviral infections.
# (§3) Subclones of each NSCLC cell line expressing the murine ecotropic receptor were generated and used for all experiments shown. Retroviral infections were performed using Phoenix cells as producers of retroviral supernatants using 2.5-3 μg of plasmid DNA as described (http://www(dot)stanford(dot)edu/group/nolan/retroviralsystems/phx(dot)html). […] For transfections of Phoenix cells, Applicants seeded 1.0×10^6 cells in a 6-well dish in the morning and transfected the cells 6-8 hours later. Cells were refreshed the next day in the morning and afternoon. Viral supernatant was harvested the day thereafter for infections of the target cells. […] Infected NSCLC cells were selected for successful retroviral integration using 2 μg/ml of puromycin.
# [12] = test system: PC9 cells (EGFRdelE746-A750); assay type: cell-based, human
# Method: as §2, §3
# [13] = test system: DAB2IP mRNA; test: DAB2IP knockdown by qRT-PCR in PC9 cells; assay type: cell-based, human
# Method: QRT-PCR assays were carried out to measure mRNA levels of genes using 7500 Fast Real-Time PCR System (Applied Biosystems). Total RNA was isolated using Trizol (Invitrogen) and 1 μg of total RNA was used for cDNA synthesis using superscrpipt 11 reverse transcriptase (Invitrogen) and random hexamer primers (Invitrogen). Relative mRNA levels of each gene shown were normalized to the expression of the house keeping gene GAPDH. The sequences of the primers for assays using SYBR® Green master mix (Roche) are listed below (h, human: m, mouse).
molecule,measurement,setting,value
COc1ccc(-c2ccc3c(N4CCOC[C@@H]4C)nc(N4CCOC[C@@H]4C)nc3n2)cc1CO [AZD8055],"resistance on suppression of ARID1A, colony formation",[1],conferred resistance; also recorded: confers resistance
same,phosphorylated AKT (p473-AKT) levels in the presence of inhibitor,[2],maintained higher levels
same,phosphorylated S6RP (p235/236-S6RP) levels in the presence of inhibitor,[2],maintained higher levels
same,"resistance on suppression of ARID1A, colony formation",[3],conferred resistance; also recorded: confers resistance
same,"resistance on knockdown of ARID1A, colony formation",[4],conferred resistance
COc1cc(N2CCC(N3CCN(C)CC3)CC2)ccc1Nc1ncc(Cl)c(Nc2ccccc2S(=O)(=O)C(C)C)n1 [NVP-TAE684],inhibition of EML4-ALK NSCLC cell lines,[5],potently inhibit
same,phosphorylated AKT levels in the presence of inhibitor,[6],maintained higher levels
same,sensitivity to ALK inhibitors after restoration of Med12,[7],re-sensitizes
same,sensitivity to ALK inhibitors after restoration of SMARCE1,[7],re-sensitizes
same,"resistance to ALK inhibitors on suppression of ARID1A or SMARCE1, colony formation",[7],confers drug resistance
same,"resistance to ALK inhibitors on suppression of MED12, colony formation",[7],confers drug resistance
same,"resistance to ALK inhibitors, colony formation",[7],confer resistance
Cn1c(=O)n(-c2ccc(C(C)(C)C#N)cc2)c2c3cc(-c4cnc5ccccc5c4)ccc3ncc21 [NVPBEZ235],resistance on knockdown of ARID1A,[8],conferred resistance
Oc1cccc(-c2nc(N3CCOCC3)c3oc4ncccc4c3n2)c1 [PI-103],resistance on knockdown of ARID1A (SMARCF1),[9],conferred resistance
C[C@@H](Oc1cc(-c2cnn(C3CCNCC3)c2)cnc1N)c1c(Cl)ccc(F)c1Cl [crizotinib],sensitivity to MET inhibitor after restoration of SMARCE1,[10],restored the sensitivity
same,sensitivity to MET inhibitor after restoration of SMARCE1,[10]; listed as Crizotinib,re-sensitizes
same,resistance to MET inhibitor on suppression of ARID1A,[10],conferred resistance
same,resistance to MET inhibitor on suppression of ARID1A,[10]; listed as Crizotinib,are resistance
same,resistance to MET inhibitor on suppression of SMARCE1,[10]; H1993 expressing shSMARCE1#1 and #2,conferred resistance
same,sensitivity to ALK inhibitors after restoration of Med12,[7],re-sensitizes
same,sensitivity to ALK inhibitors after restoration of SMARCE1,[7],re-sensitizes
same,"resistance to ALK inhibitors on suppression of ARID1A or SMARCE1, colony formation",[7],confers drug resistance
same,"resistance to ALK inhibitors on suppression of MED12, colony formation",[7],confers drug resistance
same,"resistance to ALK inhibitors, colony formation",[7],confer resistance
same,sensitivity to MET inhibitor after restoration of SMARCE1,[11],restored the sensitivity
same,sensitivity to MET inhibitor after restoration of SMARCE1,[11]; listed as Crizotinib,re-sensitizes
same,resistance to MET inhibitor on suppression of SMARCE1,[11]; EBC-1 expressing shSMARCE1#1 and #2,conferred resistance
"shDAB2IP#2: lentiviral pLKO shRNA vector from the TRC library targeting DAB2IP, sequence GACTCCAAACAGAAGATCATT (pLKO lentiviral vector)",toxicity of shRNA vector,[12],exhibited toxicity
"shDAB2IP#5: lentiviral pLKO shRNA vector from the TRC library targeting DAB2IP, sequence GCACATCACTAACCACTACCT (pLKO lentiviral vector)",knockdown of DAB2IP,[13],failed to induce a knockdown
